Data published in PubChem BioAssay AID2060496 (Molecular Pharmacology Branch, DTP, NCI, 2025).
Each block holds one compound with its values, some of them ahead of it.

Tested on: 276233-004-R-J1-PDC complex spheroid viability
Assay: Anticancer human tumor 276233-004-R-J1-PDC patient-derived colon adenocarcinoma cell line growth inhibition [GQUAD]
Conditions: for IC50: curve of first compound; for viability, T/C: stronger effect = lower value
How it was run: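 Viability of tumor cells grown as complex spheroids with endothelial and stromal cells, exposed to drug combinations. Top concentration at or near clinical Cmax (else 10 microM), diluted in half-log increments.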

[1] = second compound 0.0316 µM, first compound 0.0316 µM
[2] = second compound 0.0316 µM, first compound 0.1 µM
[3] = second compound 0.0316 µM, first compound 0.316 µM
[4] = second compound 0.0316 µM, first compound 1 µM
[5] = second compound 0.0316 µM, first compound 3.16 µM
[6] = second compound 0.0316 µM, first compound 10 µM
[7] = second compound 0.1 µM, first compound 0.0316 µM
[8] = second compound 0.1 µM, first compound 0.1 µM
[9] = second compound 0.1 µM, first compound 0.316 µM
[10] = second compound 0.1 µM, first compound 1 µM
[11] = second compound 0.1 µM, first compound 3.16 µM
[12] = second compound 0.1 µM, first compound 10 µM
[13] = second compound 0.316 µM, first compound 0.0316 µM
[14] = second compound 0.316 µM, first compound 0.1 µM
[15] = second compound 0.316 µM, first compound 0.316 µM
[16] = second compound 0.316 µM, first compound 1 µM
[17] = second compound 0.316 µM, first compound 3.16 µM
[18] = second compound 0.316 µM, first compound 10 µM
[19] = second compound 1 µM, first compound 0.0316 µM
[20] = second compound 1 µM, first compound 0.1 µM
[21] = second compound 1 µM, first compound 0.316 µM
[22] = second compound 1 µM, first compound 1 µM
[23] = second compound 1 µM, first compound 3.16 µM
[24] = second compound 1 µM, first compound 10 µM
[25] = second compound 3.16 µM, first compound 0.0316 µM
[26] = second compound 3.16 µM, first compound 0.1 µM
[27] = second compound 3.16 µM, first compound 0.316 µM
[28] = second compound 3.16 µM, first compound 1 µM
[29] = second compound 3.16 µM, first compound 3.16 µM
[30] = second compound 3.16 µM, first compound 10 µM
[31] = second compound 10 µM, first compound 0.0316 µM
[32] = second compound 10 µM, first compound 0.1 µM
[33] = second compound 10 µM, first compound 0.316 µM
[34] = second compound 10 µM, first compound 1 µM
[35] = second compound 10 µM, first compound 3.16 µM
[36] = second compound 10 µM, first compound 10 µM
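Note: spheroids exposed to drugs for seven days.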
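Throughout, for viability, T/C: 100% = DMSO vehicle control viability.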

SMILES: COc1cc(C2c3cc4c(cc3C(OC3OC5COC(C)OC5C(O)C3O)C3COC(=O)C23)OCO4)cc(OC)c1O (stereo unspecified) + CN(C)c1ccc(Nc2c3ccc(NC(=O)CCN4CCCC4)cc3nc3cc(NC(=O)CCN4CCCC4)ccc23)cc1
- IC50 (second compound 0.0316 µM): > 10 µM
- IC50 (second compound 0.1 µM): > 10 µM
- IC50 (second compound 0.316 µM): > 10 µM
- IC50 (second compound 1 µM): > 10 µM
- IC50 (second compound 3.16 µM): > 10 µM
- IC50 (second compound 10 µM): 3.31 µM
- viability, T/C [1]: 95.7%
- viability, T/C [2]: 106%
- viability, T/C [3]: 98.9%
- viability, T/C [4]: 90.4%
- viability, T/C [5]: 87%
- viability, T/C [6]: 98.8%
- viability, T/C [7]: 75.8%
- viability, T/C [8]: 88.2%
- viability, T/C [9]: 92.7%
- viability, T/C [10]: 82.3%
- viability, T/C [11]: 77.7%
- viability, T/C [12]: 78.4%
- viability, T/C [13]: 60.1%
- viability, T/C [14]: 69%
- viability, T/C [15]: 55.5%
- viability, T/C [16]: 69.4%
- viability, T/C [17]: 61.2%
- viability, T/C [18]: 61.3%
- viability, T/C [19]: 56.6%
- viability, T/C [20]: 45.2%
- viability, T/C [21]: 58.5%
- viability, T/C [22]: 62.3%
- viability, T/C [23]: 55.4%
- viability, T/C [24]: 55%
- viability, T/C [25]: 54.8%
- viability, T/C [26]: 49%
- viability, T/C [27]: 52.2%
- viability, T/C [28]: 56.5%
- viability, T/C [29]: 61.5%
- viability, T/C [30]: 54.6%
- viability, T/C [31]: 46.8%
- viability, T/C [32]: 59.5%
- viability, T/C [33]: 47.3%
- viability, T/C [34]: 57.4%
- viability, T/C [35]: 45.7%
- viability, T/C [36]: 48.5%

SMILES: CC(C)n1c(=O)n(C)c2cnc3cc(F)c(-c4ccc(OCCCN5CCCCC5)nc4)cc3c21 + Cc1[nH]c2ccc(F)cc2c1-c1nc2c3cccnc3c3ncccc3c2[nH]1
- IC50 (second compound 0.0316 µM): > 10 µM
- IC50 (second compound 0.1 µM): > 10 µM
- IC50 (second compound 0.316 µM): > 10 µM
- IC50 (second compound 1 µM): > 10 µM
- IC50 (second compound 3.16 µM): 3.22 µM
- IC50 (second compound 10 µM): < 0.0316 µM
- viability, T/C [1]: 98.8%
- viability, T/C [2]: 86.7%
- viability, T/C [3]: 110%
- viability, T/C [4]: 80.8%
- viability, T/C [5]: 103%
- viability, T/C [6]: 82.9%
- viability, T/C [7]: 90.9%
- viability, T/C [8]: 88.7%
- viability, T/C [9]: 85%
- viability, T/C [10]: 100%
- viability, T/C [11]: 78.2%
- viability, T/C [12]: 84.8%
- viability, T/C [13]: 88.1%
- viability, T/C [14]: 94.3%
- viability, T/C [15]: 79%
- viability, T/C [16]: 94.2%
- viability, T/C [17]: 104%
- viability, T/C [18]: 87.8%
- viability, T/C [19]: 72.8%
- viability, T/C [20]: 73.3%
- viability, T/C [21]: 82.2%
- viability, T/C [22]: 70.1%
- viability, T/C [23]: 80.8%
- viability, T/C [24]: 69.7%
- viability, T/C [25]: 52%
- viability, T/C [26]: 49.2%
- viability, T/C [27]: 55%
- viability, T/C [28]: 45.8%
- viability, T/C [29]: 50.9%
- viability, T/C [30]: 26.8%
- viability, T/C [31]: 48.7%
- viability, T/C [32]: 47%
- viability, T/C [33]: 54.9%
- viability, T/C [34]: 42%
- viability, T/C [35]: 47%
- viability, T/C [36]: 21.7%

- IC50 (second compound 0.0316 µM): > 10 µM
- IC50 (second compound 0.1 µM): > 10 µM
- IC50 (second compound 0.316 µM): > 10 µM
- IC50 (second compound 1 µM): > 10 µM
- IC50 (second compound 3.16 µM): > 10 µM
- IC50 (second compound 10 µM): > 10 µM
SMILES: Cc1cccc(N(C)C(=O)C2C(O)CCN2c2nc(C)cc(C(F)(F)F)c2C#N)c1 (stereo unspecified) + Cc1cnc(CNC(=O)c2c(=O)c3ccc(N4CCCN(C)CC4)nc3n3c2sc2ccccc23)cn1
- viability, T/C [1]: 89.8%
- viability, T/C [2]: 75.8%
- viability, T/C [3]: 90.8%
- viability, T/C [4]: 84.7%
- viability, T/C [5]: 98.8%
- viability, T/C [6]: 92.8%
- viability, T/C [7]: 75.4%
- viability, T/C [8]: 78.2%
- viability, T/C [9]: 80.1%
- viability, T/C [10]: 88.6%
- viability, T/C [11]: 80.2%
- viability, T/C [12]: 82.5%
- viability, T/C [13]: 77.2%
- viability, T/C [14]: 72.1%
- viability, T/C [15]: 81.9%
- viability, T/C [16]: 76.4%
- viability, T/C [17]: 86.4%
- viability, T/C [18]: 84.8%
- viability, T/C [19]: 73.5%
- viability, T/C [20]: 79.1%
- viability, T/C [21]: 85.6%
- viability, T/C [22]: 79.5%
- viability, T/C [23]: 77.6%
- viability, T/C [24]: 87.4%
- viability, T/C [25]: 65.7%
- viability, T/C [26]: 69.8%
- viability, T/C [27]: 70%
- viability, T/C [28]: 56.6%
- viability, T/C [29]: 79%
- viability, T/C [30]: 71%
- viability, T/C [31]: 69.9%
- viability, T/C [32]: 63.3%
- viability, T/C [33]: 73.9%
- viability, T/C [34]: 69%
- viability, T/C [35]: 66.5%
- viability, T/C [36]: 79.3%
